Results on six molecules are retold here after patent publication US9309514B2, “G protein-coupled purinergic receptor Gpr17 mediates orexigenic effects of FoxO1 in AgRP neurons” (THE TRUSTEES OF COLUMBIA UNIVERSITY IN THE CITY OF NEW YORK, priority 2012, dated 2016).

The subject of data set [1] is mice. Kind of data set: Glucose tolerance test / blood glucose after Gpr17 agonist administration. In kind it is in vivo. The note with it: 6 hr fast, test 20 minutes after administration (FIG. 12C). The method, then: FIG. 12A-12D. […] (A) Satiated mice were injected with saline or Gpr17 agonist LTD4 (n=5-7). Food intake was monitored for the following time course. (B) Locomotor activity counts of satiated mice during daytime within 1.5 hours following administration of Gpr17 agonist LTD4 (n=6). (C) After fasting for 6 hrs, saline or LTD4 were administered to the mice (n=6-7). Glucose tolerance test was performed 20 minutes after the administration. […] Glucose was measured before or 20 minutes after the administration.

Data set [2] concerns mice. Kind of data set: Food intake after ICV (3rd ventricle) injection. It is filed as in vivo. The text has this:
ELISA for leptin, insulin, and glucagon measurements (Millipore), and colorimetric assays for plasma free fatty acids and glycerol (Wako) were used.
The effect of delivering cangrelor into the 3rd ventricle of mice on food intake was studied.

In data set [3] the test system is AgRP neurons. Kind of data set: Immunohistochemistry of pSTAT3, pS6 and pAkt in AgRP or POMC neurons after delivery into the 3rd ventricle.
Procedure: Stereotactic manipulations in 3-4 month-old C57BL/6 mice were performed. Cannulae were placed and allowed 1 week for recovery (−1.8 mm anterior and 0 mm lateral to bregma and 5.3 mm below the skull surface). Correct positioning of the cannulae was verified by monitoring drinking activity after angiotensin injection. […] For immunohistochemistry studies, mice 4-5 hr were perfused after refeeding.
To test whether Gpr17 function affects ARH hormonal signaling in vivo, cangrelor was delivered directly into the 3rd ventricle of mice after an overnight fast and the co-localization of pSTAT3, pS6, and pAkt was determined in either POMC or AgRP neurons, identified by fluorescent reporter, after refeeding.
For another data set, the system named is platelet. The note with it: 4 μg/kg per minute IV, in approximately 70% of patients after 15 min; cited from earlier work.
Data set [4] concerns AgRP neurons. Kind of data set: Patch-clamp electrophysiology of fluorescently labeled AgRP neurons in brain slices. It is filed as cell-based, mice. The method, then:
300-μm coronal ARH slices were prepared from 6- to 8-week-old mice using ice cold sucrose-based cutting solution (adjusted to pH 7.3) containing (in mM): 10 NaCl, 25 NaHCO3, 195 sucrose, 5 glucose, 2.5 KCl, 1.25 NaH2PO4, 2 Na pyruvate, 0.5 CaCl2, and 7 MgCl2 bubbled continuously with 95% O2 and 5% CO2. Slices were allowed to recover at least 45 minutes at room temperature in recording solution (adjusted to pH 7.3) containing (in mM): 125 NaCl, 5 glucose, 25 NaHCO3, 2.5 KCl, 1.25 NaH2PO4, 2 CaCl2, and 1 MgCl2 bubbled continuously with 95% O2 and 5% CO2 before transferring them to a perfusion chamber for recording. Patch pipettes were pulled to resistances of 7-9 MΩ and filled them with solution (adjusted to pH 7.3) containing 128 K gluconate, 10 KCl, 10 HEPES, 0.1 EGTA, 2 MgCl2, 0.3 Na-GTP, and 3 Mg-ATP. Cells were selected using an upright microscope fitted with fluorescence optics (Nikon) and patched under IR-DIC optics. Electrical access was assessed in the whole-cell recording mode using a small-voltage step-pulse before and at the end of the current clamp recordings. Recordings were discarded in which the series resistance had been >15 MΩ. Current clamp recordings were acquired with no current injection using a MultiClamp 700B amplifier and Clampex data acquisition software (Axon Instruments). Action potential (AP) firing frequency, membrane potential, and AP amplitude using MiniAnalysis (Synaptosoft) were recorded at room temperature and analyzed. Electrophysiological recording to measure mEPSC and mIPSC in brain slices was performed as previously described (Pinto et al., 2004).
The electrophysiological properties of AgRP neurons identified using fluorescent reporters in brain slices from wild-type and Agrp-Foxo1^−/− mice (FIG. 5D-F) were studied. […] Furthermore, insulin suppressed the firing frequency of wild-type cells to ˜35% of basal level, a nearly three-fold reduction. Despite the lower basal firing frequency, insulin further suppressed the firing frequency of knockout neurons, with a 100-fold reduction. Insulin caused a similar reduction in membrane potential in wild-type and knockout cells (˜−20 mV).
Given the favorable metabolic profile of Agrp-Foxo1^−/− mice, experiments were designed to identify FoxO1 targets that mediate its effects and are readily targetable by chemical means. […] Next, Gpr17 regulation in ARH punch biopsies from fasted and refed mice was examined. […] To investigate the function of Gpr17 in AgRP neurons, the electrophysiological properties of fluorescently labeled AgRP neurons in response to the Gpr17 antagonist, cangrelor were tested. […] Therefore, inhibition of Gpr17 can affect the electrical activity of AgRP neurons in an insulin-mimetic fashion, supporting our hypothesis.

The conditions of data set [5]: in vivo; cited from earlier work.
Another data set relates to Neuro2A (N2A) cells. Put plainly: Insulin signaling (pAkt western blot) in wild type N2A cells treated with or without cangrelor. In kind it is cell-based. Particulars: serum starved overnight, stimulated with insulin. On the procedure:
FIG. 14. Neuro2A (N2A) cells are a suitable model for studying the molecular mechanisms of Gpr17 signaling. Wild type N2A cells (treated with or without cangrelor) were serum starved overnight and stimulated with insulin. Insulin signaling activity was gauged by measuring pAkt by western blot. N2A cells express minimal endogenous Gpr17.
More experiments were conducted to study the in vivo regulation of Gpr17 expression by FoxO1. It was discovered that Knocking out FoxO using Synapsin-Cre in mediobasal hypothalamus (MBH) caused a concomitant reduction of Gpr17, further showing that Gpr17 is the endogenous target of FoxO. FIG. 13, panel A. Moreover, Gpr17 expression was elevated in the hippocampus of insulin resistant diabetic GIRKO mice. FIG. 13, panel B. Further studies of Gpr17 expression showing that it contributes to the causality of diabetes, were conducted using Neuro2A (N2A) cells that express minimal endogenous Gpr17. Wild type N2A cells (treated with or without cangrelor) were serum starved overnight and then stimulated with insulin. Insulin signaling activity was gauged by measuring pAkt by western blot. […] FIG. 14.

A further data set deals with mouse Gpr17. Kind of data set: siRNA knockdown of Gpr17 in Gpr17-mCherry stable line (diminished mCherry signal). In kind it is cell-based. Particulars: Gpr17-mCherry stable line transfected with RNAi construct. The source says: Seven siRNA sequences were designed based on the gene sequence of mouse Gpr17. DNA oligomers were ligated into a MSCV-P2Gm vector and verified by sequencing. The correct clones were used for further evaluation of the effectiveness of each RNAi construct. Gpr17-mCherry-stable line was transfected with each of the seven constructs. The effectiveness of RNAi was scored by the diminished mCherry signal in cells. […] The resultant adenovirus expresses RNAi upon Cre-dependent recombination. Seven oligomer sequences to generate Gpr17 RNAi. The 7 oligomers were ligated into the vector (MSCV-P2Gm) to generate RNAi specific for Gpr17 gene. The sequences are provided as following. The common adaptor sequence is provided, and the targeting siRNA (specific for mouse Gpr17) sequence is highlighted with underline.
In another series of experiments, siRNA sequences that knock down Gpr17 were identified. Seven candidate siRNA sequences conjugated to Gfp (green) and directed against mouse Gpr17 were cloned into a vector and their ability to inhibit Gpr17 expression was determined in Gpr17-mCherry stable line by their effectiveness in diminishing red fluorescence. Seven candidate sequences against mouse Gpr17 were cloned into vector. The resultant adenovirus expresses RNAi upon Cre-dependent recombination. Various degrees of knockdown of Gpr17 were achieved using siRNA.

Setting [6] is: delivered into 3rd ventricle after overnight fast, determined after refeeding.
The mark [7] stands for this setting: 3rd ventricle, overnight fast, refeeding, in a subset of AgRP neurons.
The mark [8] stands for this setting: cangrelor treatment (90 nM), same neurons before and after.
The mark [9] stands for this setting: insulin, wild-type AgRP neurons.

Turning to `CCCCC/C=C\C\C=C/C=C/C=C/[C@@H](SC[C@H](N)C(=O)NCC(=O)O)[C@@H](O)CCCC(=O)O` [LTD4], the “glucose tolerance test / neuronal regulation of glucose homeostasis” value in the data set with mice [1] is recorded as “impairs neuronal regulation of glucose homeostasis”. The food intake entry in the data set on mice [2] (satiated mice injected with saline or LTD4 (FIG. 12A)) is “increases food intake”. The “pSTAT3 content in AgRP neurons” value with AgRP neurons [3] (setting [6]) was “decreased”.

With `CSCCNc1nc(SCCC(F)(F)F)nc2c1ncn2[C@@H]1O[C@H](COP(=O)(O)OP(=O)(O)C(Cl)(Cl)P(=O)(O)O)[C@@H](O)[C@H]1O` [cangrelor, [dichloro-[[[(2R,3S,4R,5R)-3,4-dihydroxy-5-[6-(2-methylsulfanylethylamino)-2-(3,3,3-trifluoropropylsulfanyl)purin-9-yl]oxolan-2-yl]methoxy-hydroxyphosphoryl]oxy-hydroxyphosphoryl]methyl]phosphonic acid], the platelet inhibition with platelet is 100%. In addition, the “food intake during refeeding” value with mice [2] (Agrp-Foxo1−/− mice, overnight fast, cangrelor into 3rd ventricle) is given as “completely unaffected”. Further, the “pAkt and pS6 in POMC neurons” value with AgRP neurons [3] (3rd ventricle, overnight fast, refeeding) is “without effecting detectable changes”. In the data set on AgRP neurons [3] (setting [7]), the “pAkt in AgRP neurons” value is given as “increased” and the “pS6 in AgRP neurons” value was “increased”. Also, in the data set with AgRP neurons [3] (setting [6]), the “pSTAT3 content in AgRP neurons” value was “specifically and dramatically increased”; the “pSTAT3 content in POMC neurons” value is “not in POMC neurons”. In the data set on AgRP neurons [4] (setting [8]), the “firing frequency of AgRP neurons” value is “significantly reduced” and the “membrane potential of AgRP neurons” value is given as “lower”. For the same molecule, the plasma half-life result in data set [5] is on record as “three to six”. Further, in the data set with Neuro2A (N2A) cells, the “insulin signaling (pAkt by western blot)” value is “minimal effect”.

As to “insulin: anorexigenic hormone applied to AgRP neurons in brain slices”, in the data set on AgRP neurons [4] (insulin, Agrp-Foxo1−/− (knockout) AgRP neurons), the “fold reduction of firing frequency” value is reported as 100 fold. Further, in the data set with AgRP neurons [4] (setting [9]), the “firing frequency relative to basal level” value is reported as ~35 % of basal level and the “fold reduction of firing frequency” value is recorded as “three”. Moreover, the “reduction in membrane potential” value with AgRP neurons [4] (insulin, wild-type and knockout cells) is ~−20 mV.

B1: SEQ ID NO. 7: oligomer ligated into MSCV-P2Gm vector to generate RNAi specific for mouse Gpr17 (nucleic acid)
DNA: TGCTGTTGACAGTGAGCGCCCGGATCACCTCCTGCCTCACTAGTGAAGCCACAGATGTAGTGAGGCAGGAGGTGATCCGGTTGCCTACTGCCTCGGA
Consider B1, for which the “effectiveness in knocking down Gpr17 expression (diminishing red fluorescence)” value (from here on “effectiveness”) in the data set on mouse Gpr17 is “most effective”.

B2: SEQ ID NO. 6: oligomer ligated into MSCV-P2Gm vector to generate RNAi specific for mouse Gpr17 (nucleic acid)
DNA: TGCTGTTGACAGTGAGCGATGGCTTCCTCTTCTATCTGAATAGTGAAGCCACAGATGTATTCAGATAGAAGAGGAAGCCAGTGCCTACTGCCTCGGA
Take B2: the “effectiveness” value in the data set with mouse Gpr17 is listed as “most effective”.

B3: SEQ ID NO. 9: oligomer ligated into MSCV-P2Gm vector to generate RNAi specific for mouse Gpr17 (nucleic acid)
DNA: TGCTGTTGACAGTGAGCGAAACTGTACCGGGAGAAGGCCTTAGTGAAGCCACAGATGTAAGGCCTTC
Turning to B3, the “effectiveness” value in the data set on mouse Gpr17 was “most effective”.
